Experimental data published in PMC6694155, “PTPσ inhibitors promote hematopoietic stem cell regeneration” (Nature Communications, 2019).
Several values for one entry are separate records, joined by “and”; a condition that tells them apart may be missing. Identical values can stand only once.

Experiments:
[1] = molecular target: T1, PTP1B (Protein Tyrosine Phosphatase 1B) (Homo sapiens, UniProt P18031); assay: PhosphataseProfiler screen: PTP1B; type: biochemical; settings: replicates
T1 construct: purchased Eurofins Pharma Discovery Services UK
Experimental: (§1) Compound DJ001 was evaluated in a PhosphataseProfiler™ screen at 10 μM and 1 μM (2.7 μg/mL and 0.27 μg/mL) concentrations at Eurofins Pharma Discovery Services UK (Study number UK022-0004033) against a panel of 21 Phosphatases. In each experiment, the respective reference antagonist/agonist was tested directly with DJ001 and the data were compared with historical values determined at Eurofins. DJ001 compound inhibition was calculated as percentage inhibition of the enzymatic activity compared with control.

[2] = molecular target: T2, SHP-2 (Protein-Tyrosine Phosphatase 2C) (Homo sapiens, UniProt Q06124); assay: PhosphataseProfiler screen: SHP-2; type: biochemical; settings: replicates
T2 construct: purchased Eurofins Pharma Discovery Services UK
Experimental: as §1

[3] = test system: BM KSL cells; assay: CFC assay after lentiviral shRac1 or shBcl2l1 silencing and 300 cGy; type: cell-based, mouse; settings: for Figure 3i: BFU-E / Figure 3i: CFU-GM / Figure 3i: GEMM: 300 cGy, replicates
Experimental: Rac1 CDS-targeting- and Bcl2l1 CDS-targeting shRNA in lentiviral plasmid (TRCN0000310888 and TRCN0000004685) and control shRNA (SHC216V) were purchased from Sigma Aldrich. […]. Viral particles were collected after 24 h and 48 h. […] Infected cells were collected the next day and irradiated with 300 cGy followed by treatment with or without 1 μg/mL DJ001, prior to CFC assay.
(§2) CFC assays (colony-forming unit-granulocyte monocyte), burst-forming unit-erythroid, and CFU-GEMM were performed using MethoCult GF M3434 (Stemcell Technologies)[6]. For all in vitro assays, BM CD34^−KSL cells, KSL cells, and Lin^− cells were cultured in TSF media (IMDM, 10% FBS, 1% pen-strep, 20 ng/mL recombinant mouse TPO, 125 ng/mL recombinant mouse SCF, 50 ng/mL recombinant mouse Flt3 ligand). Recombinant mouse SCF, Flt3 ligand, and TPO were purchased from R&D Systems. For competitive repopulation assays, BM cells were isolated from donor 10–12-week-old female CD45.2^+ mice. Recipient 10-week-old female CD45.1^+ B6.SJL mice were irradiated with 950 cGy TBI using a Cs137 irradiator and donor BM cells were administered via tail vein injection along with a competing dose of 1 × 10^5 non-irradiated host BM cells. Multilineage donor hematopoietic cell engraftment was measured in the PB by flow cytometry.

[4] = test system: BM KSL cells; assay: Cell cycle analysis (Ki67/7AAD) of BM KSL cells; type: cell-based, mouse; parameters: G0 / G1 / G2SM: unit not given here
Experimental: Eight- to ten-week-old female C57BL/6 mice were irradiated with 500 cGy TBI followed by subcutaneous injections of 5 mg/kg DJ001 or vehicle, or 5 mg/kg DJ001 plus 40 mg/kg EHT1864. Twenty four hours after irradiation, mice were killed to collect BM cells for Annexin V apoptosis analysis. BM cells were stained with APC-Cy7-conjugated anti-mouse Sca1 (BD Biosciences, #560654, 1:100), PE-conjugated anti-ckit (BD Biosciences, #553355, 1:100), and V450 lineage cocktail (BD Biosciences, #561301, 1:10) antibodies for 30 min at 4 °C. Cells were then resuspended in 1× Annexin V binding buffer and then stained with FITC-conjugated anti-Annexin V antibody (BD Biosciences, #556547,1:50) and 7AAD antibody (BD Biosciences, #559925, 1:40)[68]. For in vitro human BM cell apoptosis assays, isolated human BM CD34^+ cells were plated into 96-well plates and then irradiated with 300 cGy. Immediately after irradiation, cells were treated with 5 μg/mL DJ001 or vehicle for 24 h and then collected for Annexin V cell apoptosis analysis. For cell cycle analysis, BM KSL cells were irradiated at 300 cGy and then treated with 1 μg/mL DJ001 or vehicle for 36 h. Subsequently, cells were resuspended in 200 μL of PBS, fixed with 1 mL of ice-cold fixation solution (0.25% Saponin, 2.5% PFA, 2% fetal calf serum (FCS) in PBS), and incubated for 30 min on ice. Cells were washed in Saponin buffer (0.25% Saponin, 2% FCS in PBS) and resuspended in 200 μL of Saponin buffer containing 20 μL of FITC-conjugated anti-Ki67 antibody (BD Biosciences, #556026, 1:10) and 1 μL of RNase (Qiagen, #19101, 100 mg/mL). After 30 min of incubation, cells were washed in Saponin buffer and resuspended for flow analysis in 200 μL of Saponin buffer containing 5 μL 7AAD (BD Biosciences, #559925, 1:40).

[5] = test system: human BM CD34+ cells; assay: CFU-GEMM from 300 cGy-irradiated human BM CD34+ cells; type: cell-based
Experimental: as §2
Human BM mononuclear cells were purchased from AllCells. Cryopreserved human BM cells were recovered in IMDM + 10% FBS + 1% penicillin–streptomycin and then positively selected for CD34^+ stem/progenitor cells by using CD34 MicroBead Kit (Miltenyi Biotec, #130-046-702, 1:5). […]

[6] = 36 h following 300 cGy, 1 μg/mL DJ001
[7] = 36 h following 300 cGy, 1 µg/mL DJ001, 6 µg/mL EHT1864, 240 ng/mL SU9516
[8] = cell cycle phase, Supplementary Figure 7h

T1 sequence (P18031 whole entry, species assumed): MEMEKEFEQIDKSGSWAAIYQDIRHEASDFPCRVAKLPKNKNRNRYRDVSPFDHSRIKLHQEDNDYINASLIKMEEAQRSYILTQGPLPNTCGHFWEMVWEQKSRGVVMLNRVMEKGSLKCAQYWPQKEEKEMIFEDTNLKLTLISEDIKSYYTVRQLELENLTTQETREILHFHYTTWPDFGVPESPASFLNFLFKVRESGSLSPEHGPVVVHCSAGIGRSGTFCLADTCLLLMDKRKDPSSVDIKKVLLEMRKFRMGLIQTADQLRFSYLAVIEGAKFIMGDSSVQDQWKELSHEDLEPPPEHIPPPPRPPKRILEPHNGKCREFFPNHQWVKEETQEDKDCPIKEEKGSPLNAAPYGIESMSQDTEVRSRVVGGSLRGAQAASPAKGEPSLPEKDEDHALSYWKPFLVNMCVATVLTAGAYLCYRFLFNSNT
T2 sequence (Q06124 whole entry, species assumed): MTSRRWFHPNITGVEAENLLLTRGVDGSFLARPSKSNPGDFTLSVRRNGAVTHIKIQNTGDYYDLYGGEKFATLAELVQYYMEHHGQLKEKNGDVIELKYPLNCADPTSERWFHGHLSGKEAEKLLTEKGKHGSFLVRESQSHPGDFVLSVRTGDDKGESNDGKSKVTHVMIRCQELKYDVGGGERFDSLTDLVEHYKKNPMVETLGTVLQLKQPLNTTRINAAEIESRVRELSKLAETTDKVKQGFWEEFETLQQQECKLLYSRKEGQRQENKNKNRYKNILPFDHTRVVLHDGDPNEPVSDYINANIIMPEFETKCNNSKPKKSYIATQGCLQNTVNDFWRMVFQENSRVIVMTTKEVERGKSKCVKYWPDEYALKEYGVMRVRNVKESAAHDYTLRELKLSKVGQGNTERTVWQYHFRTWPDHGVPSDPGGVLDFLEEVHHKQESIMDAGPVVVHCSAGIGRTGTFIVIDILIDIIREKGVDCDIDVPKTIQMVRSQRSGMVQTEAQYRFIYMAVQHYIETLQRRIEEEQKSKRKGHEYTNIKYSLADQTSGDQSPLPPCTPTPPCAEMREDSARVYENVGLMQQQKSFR

In the case of `O=C(/C=C\Nc1cccc([N+](=O)[O-])c1)c1ccccc1` [DJ001, (Z)-3-((3-nitrophenyl)amino)-1-phenylprop-2-en-1-one], the “Supplementary Figure 1: PTP1B activity” value ([1]; 0.27 μg/mL DJ001) is reported as 97 and 90 and 91, the “Supplementary Figure 1: PTP1B activity” value ([1]; 2.7 μg/mL DJ001) is reported as 96 and 86 and 90 and the “Supplementary Figure 1: SHP-2 activity” value ([2]; 0.27 μg/mL DJ001) is reported as 99 and 96 and 102. For the same molecule, the “Supplementary Figure 1: SHP-2 activity” value ([2]; 2.7 μg/mL DJ001) was 87 and 90 and 94, the “DJ001-mediated recovery of hematopoietic progenitor cells with silencing of Rac1 or Bcl2l1” value ([3]; BM KSL cells, 48 h following 300 cGy) was “blocked DJ001-mediated recovery of hematopoietic progenitor cells” and the “Figure 3i: BFU-E” value ([3]; shBcl-xL) was 1. For the same molecule, the “Figure 3i: CFU-GM” value ([3]; shBcl-xL) was 9 and 11 and 10, the “Figure 3i: GEMM” value ([3]; shBcl-xL) was 2 and 1 (2×) and the “Figure 3i: BFU-E” value ([3]; shCtrl) was 2 and 3 (4×) and 4 (2×) and 5 (2×). For the same molecule, the “Figure 3i: CFU-GM” value ([3]; shCtrl) was 26 (3×) and 30 and 29 (2×) and 20 and 31 and 28, the “Figure 3i: GEMM” value ([3]; shCtrl) was 5 (3×) and 13 and 8 (2×) and 7 and 10 and 9 and the “Figure 3i: BFU-E” value ([3]; shRac1) was 1 (2×) and 0. The “Figure 3i: CFU-GM” value ([3]; shRac1) was 12 and 10 (2×), the “Figure 3i: GEMM” value ([3]; shRac1) was 2 and 0 and 3 and the “percentage of KSL cells in G2/S/M phase vs control” value ([4]; 36 h following 300 cGy) was “significantly increased the percentage of KSL cells in G2/S/M phase”. For the same molecule, the “percentages of KSL cells in G0, per replicate (Figure 4a)” value [4, 6] was 10.898% and 7.091% and 6.413% and 9.19% and 8.538% and 7.981% and 5.757%, the “percentages of KSL cells in G1, per replicate (Figure 4a)” value [4, 6] was 51.766% and 62.582% and 57.686% and 51.047% and 60.936% and 51.069% and 57.668% and the “percentages of KSL cells in G2SM, per replicate (Figure 4a)” value [4, 6] was 36.781% and 29.964% and 35.471% and 38.731% and 30% and 39.75% and 36.236%. For the same molecule, the “percentages of BM cells in G0, per replicate (Figure 4d bottom left panel)” value [4, 7] was 12% and 10% and 8% and 4% and 11%, the “percentages of BM cells in G1, per replicate (Figure 4d bottom center panel)” value [4, 7] was 52% and 54% and 51% and 48% and the “percentages of BM cells in G2/S/M, per replicate (Figure 4d bottom right panel)” value [4, 7] was 35% and 40% and 41% and 39%. For the same molecule, the G0 [4, 8] was 17.593 and 13.329 and 15.794 and 18.75 and 23.139 and 16.263 and 18.5, the G1 [4, 8] was 51.409 and 55.557 and 49.648 and 46.611 and 42.434 and 51.122 and 52.817 and the G2SM [4, 8] was 27.738 and 29.087 and 32.369 and 30.422 and 28.183 and 29.707 and 25.745. The “Figure 5b: CFU-GEMM” value ([5]; 300 cGy-irradiated human BM CD34+ cells, replicates) was 8 and 13 and 15 and 22 and 19 and 14 and the “recovery of multipotent CFU-GEMMs” value ([5]; 72 h following 300 cGy irradiation of human BM CD34+ cells) was “increased the recovery of multipotent CFU-GEMMs”.
